Assay results reported in ChEMBL document CHEMBL1909294, “Translating clinical findings into knowledge in drug safety evaluation--drug induced liver injury prediction system (DILIps)” (PLoS Comput Biol, 2011).

Legend:
[1] = test system: Hepatotoxicity;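 for HepSE Combined Scores: combined hepatic side effect score as listed in the training data of the Drug Induced Liver Injury Prediction System (DILIps)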;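 for HepSE cholecystitis: Cholecystitis-related hepatic side effect score drawn from the DILIps (drug-induced liver injury prediction) training data set; call rule not given here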;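 for HepSE cholelithiasis: hepatic side effect score for cholelithiasis, drawn from the DILIps training data for predicting drug-induced liver injury; call rule not given here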;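 for HepSE hepatic necrosis: score of hepatic side effects for hepatic necrosis, drawn from the training data of DILIps, a prediction system for drug-induced liver injury; call rule not given here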;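 for HepSE hepatomegaly: hepatic side effect score for hepatomegaly, taken from the training set of the DILIps drug-induced liver injury prediction system; call rule not given here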; for HepSE liver disease: call rule not given here;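 for HepSE liver function tests abnormal: hepatic side effect score taken from the DILIps (drug-induced liver injury prediction system) training data, here covering abnormal liver function test findings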
[2] = test system: Hepatotoxicity; remark: listed apart in the source;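 for HepSE Combined Scores: combined hepatic side effect score as listed in the training data of the Drug Induced Liver Injury Prediction System (DILIps)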;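 for HepSE cholecystitis: Cholecystitis-related hepatic side effect score drawn from the DILIps (drug-induced liver injury prediction) training data set; call rule not given here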;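 for HepSE cholelithiasis: hepatic side effect score for cholelithiasis, drawn from the DILIps training data for predicting drug-induced liver injury; call rule not given here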;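 for HepSE hepatomegaly: hepatic side effect score for hepatomegaly, taken from the training set of the DILIps drug-induced liver injury prediction system; call rule not given here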; for HepSE liver disease: call rule not given here;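 for HepSE liver function tests abnormal: hepatic side effect score taken from the DILIps (drug-induced liver injury prediction system) training data, here covering abnormal liver function test findings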
[3] = test system: Hepatotoxicity; remark: listed apart in the source;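 for HepSE Combined Scores: combined hepatic side effect score as listed in the training data of the Drug Induced Liver Injury Prediction System (DILIps)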;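 for HepSE cholecystitis: Cholecystitis-related hepatic side effect score drawn from the DILIps (drug-induced liver injury prediction) training data set; call rule not given here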;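 for HepSE cholelithiasis: hepatic side effect score for cholelithiasis, drawn from the DILIps training data for predicting drug-induced liver injury; call rule not given here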;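 for HepSE hepatomegaly: hepatic side effect score for hepatomegaly, taken from the training set of the DILIps drug-induced liver injury prediction system; call rule not given here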; for HepSE liver disease: call rule not given here;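 for HepSE liver function tests abnormal: hepatic side effect score taken from the DILIps (drug-induced liver injury prediction system) training data, here covering abnormal liver function test findings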
[4] = test system: Hepatotoxicity; remark: listed apart in the source;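 for HepSE Combined Scores: combined hepatic side effect score as listed in the training data of the Drug Induced Liver Injury Prediction System (DILIps)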;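 for HepSE cholecystitis: Cholecystitis-related hepatic side effect score drawn from the DILIps (drug-induced liver injury prediction) training data set; call rule not given here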;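 for HepSE cholelithiasis: hepatic side effect score for cholelithiasis, drawn from the DILIps training data for predicting drug-induced liver injury; call rule not given here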;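 for HepSE hepatomegaly: hepatic side effect score for hepatomegaly, taken from the training set of the DILIps drug-induced liver injury prediction system; call rule not given here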; for HepSE liver disease: call rule not given here;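 for HepSE liver function tests abnormal: hepatic side effect score taken from the DILIps (drug-induced liver injury prediction system) training data, here covering abnormal liver function test findings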
[5] = test system: Hepatotoxicity; remark: listed apart in the source; for HepSE liver disease: call rule not given here
[6] = test system: Hepatotoxicity; remark: listed apart in the source; for HepSE liver disease: call rule not given here
[7] = test system: Hepatotoxicity; remark: listed apart in the source
[8] = test system: Hepatotoxicity; remark: listed apart in the source
[9] = test system: Hepatotoxicity; remark: listed apart in the source
[10] = test system: Hepatotoxicity; remark: listed apart in the source
[11] = test system: Hepatotoxicity; remark: listed apart in the source
[12] = test system: Hepatotoxicity; remark: listed apart in the source
[13] = test system: Hepatotoxicity; remark: listed apart in the source
[14] = test system: Hepatotoxicity; remark: listed apart in the source

SMILES: Nc1ccn([C@@H]2CS[C@H](CO)O2)c(=O)n1 [LAMIVUDINE]
- HepSE_cholelithiasis [1]: 0
- HepSE_liver function tests abnormal [2]: 0
- HepSE_liver disease [3]: 0
- HepSE_Combined Scores [4]: 3
- HepSE_cholecystitis [5]: 0
- HepSE_hepatomegaly [6]: 1
- HepSE_hepatic necrosis [7]: 0
- HepSE_liver fatty [8]: 1
- HepSE_jaundice [9]: 1
- HepSE_bilirubinemia [10]: 0
- HepSE_hepatic failure [11]: 0
- HepSE_cirrhosis [12]: 0
- HepSE_hepatitis [13]: 0
- HepSE_elevated liver function tests [14]: 0

SMILES: Nc1nnc(-c2cccc(Cl)c2Cl)c(N)n1 [LAMOTRIGINE]
- HepSE_cholelithiasis [1]: 0
- HepSE_liver function tests abnormal [2]: 1
- HepSE_liver disease [3]: 0
- HepSE_Combined Scores [4]: 3
- HepSE_cholecystitis [5]: 0
- HepSE_hepatomegaly [6]: 0
- HepSE_hepatic necrosis [7]: 0
- HepSE_liver fatty [8]: 0
- HepSE_jaundice [9]: 0
- HepSE_bilirubinemia [10]: 1
- HepSE_hepatic failure [11]: 0
- HepSE_cirrhosis [12]: 0
- HepSE_hepatitis [13]: 1
- HepSE_elevated liver function tests [14]: 0

SMILES: CC(C)[C@@H]1NC(=O)[C@H](CCCCN)NC(=O)[C@@H](Cc2c[nH]c3ccccc23)NC(=O)[C@H](Cc2ccc(O)cc2)NC(=O)[C@@H](NC(=O)[C@H](N)Cc2ccc3ccccc3c2)CSSC[C@@H](C(=O)N[C@H](C(N)=O)[C@@H](C)O)NC1=O [LANREOTIDE]
- HepSE_cholelithiasis [1]: 1
- HepSE_liver function tests abnormal [2]: 0
- HepSE_liver disease [3]: 0
- HepSE_Combined Scores [4]: 4
- HepSE_cholecystitis [5]: 1
- HepSE_hepatomegaly [6]: 1
- HepSE_hepatic necrosis [7]: 0
- HepSE_liver fatty [8]: 0
- HepSE_jaundice [9]: 0
- HepSE_bilirubinemia [10]: 1
- HepSE_hepatic failure [11]: 0
- HepSE_cirrhosis [12]: 0
- HepSE_hepatitis [13]: 0
- HepSE_elevated liver function tests [14]: 0

SMILES: Cc1c(OCC(F)(F)F)ccnc1C[S+]([O-])c1nc2ccccc2[nH]1 (stereo not drawn) [LANSOPRAZOLE]
- HepSE_cholelithiasis [1]: 1
- HepSE_liver function tests abnormal [2]: 1
- HepSE_liver disease [3]: 0
- HepSE_Combined Scores [4]: 4
- HepSE_cholecystitis [5]: 0
- HepSE_hepatomegaly [6]: 0
- HepSE_hepatic necrosis [7]: 0
- HepSE_liver fatty [8]: 0
- HepSE_jaundice [9]: 1
- HepSE_bilirubinemia [10]: 1
- HepSE_hepatic failure [11]: 0
- HepSE_cirrhosis [12]: 0
- HepSE_hepatitis [13]: 0
- HepSE_elevated liver function tests [14]: 0

SMILES: CC(C)OC(=O)CCC/C=C\C[C@@H]1[C@@H](CC[C@@H](O)CCc2ccccc2)[C@H](O)C[C@@H]1O [LATANOPROST]
- HepSE_cholelithiasis [1]: 0
- HepSE_liver function tests abnormal [2]: 0
- HepSE_liver disease [3]: 0
- HepSE_Combined Scores [4]: 0
- HepSE_cholecystitis [5]: 0
- HepSE_hepatomegaly [6]: 0
- HepSE_hepatic necrosis [7]: 0
- HepSE_liver fatty [8]: 0
- HepSE_jaundice [9]: 0
- HepSE_bilirubinemia [10]: 0
- HepSE_hepatic failure [11]: 0
- HepSE_cirrhosis [12]: 0
- HepSE_hepatitis [13]: 0
- HepSE_elevated liver function tests [14]: 0

SMILES: Cc1oncc1C(=O)Nc1ccc(C(F)(F)F)cc1 [LEFLUNOMIDE]
- HepSE_cholelithiasis [1]: 1
- HepSE_liver function tests abnormal [2]: 1
- HepSE_liver disease [3]: 1
- HepSE_Combined Scores [4]: 7
- HepSE_cholecystitis [5]: 0
- HepSE_hepatomegaly [6]: 0
- HepSE_hepatic necrosis [7]: 1
- HepSE_liver fatty [8]: 0
- HepSE_jaundice [9]: 1
- HepSE_bilirubinemia [10]: 0
- HepSE_hepatic failure [11]: 1
- HepSE_cirrhosis [12]: 0
- HepSE_hepatitis [13]: 1
- HepSE_elevated liver function tests [14]: 0

SMILES: Nc1cccc2c1CN(C1CCC(=O)NC1=O)C2=O (stereo not drawn) [LENALIDOMIDE]
- HepSE_cholelithiasis [1]: 0
- HepSE_liver function tests abnormal [2]: 1
- HepSE_liver disease [3]: 0
- HepSE_Combined Scores [4]: 4
- HepSE_cholecystitis [5]: 1
- HepSE_hepatomegaly [6]: 0
- HepSE_hepatic necrosis [7]: 0
- HepSE_liver fatty [8]: 0
- HepSE_jaundice [9]: 0
- HepSE_bilirubinemia [10]: 1
- HepSE_hepatic failure [11]: 1
- HepSE_cirrhosis [12]: 0
- HepSE_hepatitis [13]: 0
- HepSE_elevated liver function tests [14]: 0

SMILES: N#Cc1ccc(C(c2ccc(C#N)cc2)n2cncn2)cc1 [LETROZOLE]
- HepSE_cholelithiasis [1]: 0
- HepSE_liver function tests abnormal [2]: 0
- HepSE_liver disease [3]: 0
- HepSE_Combined Scores [4]: 0
- HepSE_cholecystitis [5]: 0
- HepSE_hepatomegaly [6]: 0
- HepSE_hepatic necrosis [7]: 0
- HepSE_liver fatty [8]: 0
- HepSE_jaundice [9]: 0
- HepSE_bilirubinemia [10]: 0
- HepSE_hepatic failure [11]: 0
- HepSE_cirrhosis [12]: 0
- HepSE_hepatitis [13]: 0
- HepSE_elevated liver function tests [14]: 0

SMILES: Nc1nc2c(c(=O)[nH]1)N(C=O)C(CNc1ccc(C(=O)N[C@@H](CCC(=O)O)C(=O)O)cc1)CN2 (stereo partly drawn) [LEUCOVORIN]
- HepSE_cholelithiasis [1]: 0
- HepSE_liver function tests abnormal [2]: 0
- HepSE_liver disease [3]: 0
- HepSE_Combined Scores [4]: 0
- HepSE_cholecystitis [5]: 0
- HepSE_hepatomegaly [6]: 0
- HepSE_hepatic necrosis [7]: 0
- HepSE_liver fatty [8]: 0
- HepSE_jaundice [9]: 0
- HepSE_bilirubinemia [10]: 0
- HepSE_hepatic failure [11]: 0
- HepSE_cirrhosis [12]: 0
- HepSE_hepatitis [13]: 0
- HepSE_elevated liver function tests [14]: 0

SMILES: CC(=O)O.CCNC(=O)[C@@H]1CCCN1C(=O)[C@H](CCCNC(=N)N)NC(=O)[C@H](CC(C)C)NC(=O)[C@@H](CC(C)C)NC(=O)[C@H](Cc1ccc(O)cc1)NC(=O)[C@H](CO)NC(=O)[C@H](Cc1c[nH]c2ccccc12)NC(=O)[C@H](Cc1c[nH]cn1)NC(=O)[C@@H]1CCC(=O)N1 [LEUPROLIDE ACETATE]
- HepSE_cholelithiasis [1]: 0
- HepSE_liver function tests abnormal [2]: 1
- HepSE_liver disease [3]: 0
- HepSE_Combined Scores [4]: 2
- HepSE_cholecystitis [5]: 0
- HepSE_hepatomegaly [6]: 1
- HepSE_hepatic necrosis [7]: 0
- HepSE_liver fatty [8]: 0
- HepSE_jaundice [9]: 0
- HepSE_bilirubinemia [10]: 0
- HepSE_hepatic failure [11]: 0
- HepSE_cirrhosis [12]: 0
- HepSE_hepatitis [13]: 0
- HepSE_elevated liver function tests [14]: 0

SMILES: CC(C)(C)NC[C@H](O)COc1cccc2c1CCCC2=O [LEVOBUNOLOL]
- HepSE_cholelithiasis [1]: 0
- HepSE_liver function tests abnormal [2]: 0
- HepSE_liver disease [3]: 0
- HepSE_Combined Scores [4]: 0
- HepSE_cholecystitis [5]: 0
- HepSE_hepatomegaly [6]: 0
- HepSE_hepatic necrosis [7]: 0
- HepSE_liver fatty [8]: 0
- HepSE_jaundice [9]: 0
- HepSE_bilirubinemia [10]: 0
- HepSE_hepatic failure [11]: 0
- HepSE_cirrhosis [12]: 0
- HepSE_hepatitis [13]: 0
- HepSE_elevated liver function tests [14]: 0

SMILES: C[C@@H]1CN([C@H]2CC[C@](C#N)(c3ccc(F)cc3)CC2)CC[C@]1(C(=O)O)c1ccccc1 [LEVOCABASTINE]
- HepSE_cholelithiasis [1]: 0
- HepSE_liver function tests abnormal [2]: 0
- HepSE_liver disease [3]: 0
- HepSE_Combined Scores [4]: 0
- HepSE_cholecystitis [5]: 0
- HepSE_hepatomegaly [6]: 0
- HepSE_hepatic necrosis [7]: 0
- HepSE_liver fatty [8]: 0
- HepSE_jaundice [9]: 0
- HepSE_bilirubinemia [10]: 0
- HepSE_hepatic failure [11]: 0
- HepSE_cirrhosis [12]: 0
- HepSE_hepatitis [13]: 0
- HepSE_elevated liver function tests [14]: 0
